The results in this text go back to patent US20060046972A1, “Cytotoxic nucleoside analog compound 003 for treating cancer” (Parker Hughes Institute, priority 2004, published 2006).

The test system of assay [1] is DAUDI, human Burkitt's lymphoma. As to the kind of experiment: DNA flow cytometry of cell cycle arrest, DAUDI. The assay is classed as cell-based. Particulars: 100 μM, 48 hour. As for the experimental part:
Exponentially growing tumor cells were cultured at 1×10^6 cells/ml in clonogenic medium (RPMI 1640 medium +1% penicillin/streptomycin +10% heat-inactivated fetal bovine serum, 2 mML-glutamine, and 10 mM Hepes buffer) in the presence or absence of 100 μM compound 003 for 48 hour at 37° C., 5% CO2. At 48 h, cells were washed two times in fresh clonogenic medium, trypsinized, fixed in ice cold ethanol and labeled with propidium iodide to quantify their DNA content, as described previously (See, for example, Navara, et al., 2001, Anticancer Drugs. 12:369). Quantitative DNA analysis was performed on a Becton Dickenson Calibur flow cytometer equipped with a Consort 40 computer using the COTFIT program, which includes CELLCY, a cell cycle distribution function that fits DNA content histograms and calculates-the percentages of cells in G, S, and GM phases of the cell cycle, as described, for example, in Uckun et al., 1996, J Biol Chem. 271, 6389.
Background: Flow cytometry measures light scatter and fluorescence of single cells or particles in a stream.

Another assay has as its system BT20 breast cancer cells. Put plainly: Confocal laser scanning microscopy of microtubules / mitotic spindle, BT20. Format: cell-based, human. As for the experimental part: Immunofluorenscence was used to examine the spindle features of human cancer cell lines treated with Compound 003 or 0.5% DMSO. […] The coverslips were incubated with antibodies raised against α-tubulin, γ-tubulin (Sigma Chemical Co., St Louis, Mo.) (40 min 37° C.), washed in PBS-Tx-100, and incubated with an appropriate secondary antibody conjugated to FITC (Jackson ImmunoResearch, Westgrove, Pa.). Cellular DNA was labeled with 5 μM TOTO3 (Molecular Probes, Eugene, Oreg.) for 20 minutes. Coverslips were immediately inverted onto slides in Vectashield (Vector Labs, Burlingame, Calif.) to prevent photobleaching, sealed with nail varnish and stored at −20° C. The slides were examined using a Bio-Rad MRC-1024 Laser Scanning Confocal Microscope equipped with a Kr/Ar laser (BioRad, Hercules, Calif.) mounted on a Nikon Eclipse E800 upright microscope with high numerical aperture objectives (Nikon, Melville, N.Y.). Digital data were processed using Lasersharp (BioRad) and Adobe Photoshop software (Adobe Systems, Mountain View, Calif.). ( See, for example, Navara, et al., 2001, Anticancer Drugs. 12:369; Malaviya, et al., 2002, Leuk Lymphoma. 43, 1329; and Ghosh, 1998, Clin Cancer Res. 4, 2657).

In assay [2] the test system is MMTV/Neu transgenic mice kept pregnant or lactating. Put plainly: Lactation induced murine model of Her 2 positive breast cancer, MMTV/Neu transgenic mice. Format: in vivo. As for the experimental part:
MMTV/Neu transgenic mice were treated with Compound 003 that was added to the daily food of the mice at an average daily dose level of 50 mg/kg/day for the duration of the experiment. Mice were screened for the tumor formation every other day. Tumor-free survival was analyzed using life table statistics as previously reported. The protective anti-cancer activity of Compound 003 was evaluated according to the rise of the survival rate and prolongation of the tumor-free survival of the experimental animals as compared with the control animals. Statistical Significance was determined using the Kaplan Meier Log-Rank test.
In the second experiment, in order to maintain the development of mammary gland and maximum expression of the MMTV-driven neu transgene, all female transgenic mice were kept either pregnant or lactating by continued housing with male FVB mice. Treatments commenced when female mice were 6-weeks of age. Vehicle-treated control mice (N=16) developed breast cancer faster than vehicle treated virgin transgenic mice with a median cancer-free survival time of 169.5 days (Mean=160.8±9.3 days). Compound 003 prolonged the median cancer-free survival from 169.5 days to 234 days (P=0.05). At 200 days, the cumulative proportion of vehicle-treated neu transgenic mice was only 38±12%, whereas at the same time 75±11% of Compound 003-treated neu transgenic mice were cancer-free (FIG. 9).

As to `COC(=O)C(C)NP(=O)(OCC1OC(n2cc(C)c(=O)[nH]c2=O)CC1N=[N+]=[N-])Oc1ccc(OC)cc1` (centres unmarked) [Compound 003, 3′-azidothymidine 5′-[p-methoxyphenylmethoxyalaninyl phosphate]], the cell cycle arrest result in assay [1] is given as “caused G2 arrest”. The mitotic spindle formation entry in the assay on BT20 breast cancer cells (100 μM) was “induced aberrant multipolar spindle formation”. In the assay with BT20 breast cancer cells (185 μM for 24 hours (AZT: similar concentrations)), the effect on microtubules result is reported as “no microtubules were observed”. The median cancer-free survival in assay [2] (50 mg/kg/day in food, vehicle 169.5 days, P=0.05) is listed as 234 days. Also, the “proportion of mice cancer-free” value in assay [2] (50 mg/kg/day, at 200 days, vehicle 38±12%) was determined as 75±11%.
